Values after ≈ are worked out from the molar mass of the structure shown.
What was measured:
[1] = Metabolic stability in human liver microsomes assessed as parent compound remaining at 10 uM measured after 10 mins in presence of NADPH and GSH by UPLC-MS/MS analysis; type: ADME, Microsome; conditions: read-out: Stability
[2] = Metabolic stability in rat liver microsomes assessed as parent compound remaining at 10 uM measured after 10 mins in presence of NADPH and GSH by UPLC-MS/MS analysis; type: ADME, Microsome; conditions: read-out: Stability
[3] = Glutathione reactivity in human liver microsomes assessed as GSH-adduct formation at 10 uM incubated for 60 mins in presence of NADPH and GSH by HPLC-MS analysis; type: ADME, Microsome; conditions: 1 h
[4] = biological target: Inward rectifier potassium channel 2 (Homo sapiens, UniProt P63252); assay: Inhibition of Kir 2.1 (unknown origin)
Sequence of Inward rectifier potassium channel 2 (P63252 whole entry): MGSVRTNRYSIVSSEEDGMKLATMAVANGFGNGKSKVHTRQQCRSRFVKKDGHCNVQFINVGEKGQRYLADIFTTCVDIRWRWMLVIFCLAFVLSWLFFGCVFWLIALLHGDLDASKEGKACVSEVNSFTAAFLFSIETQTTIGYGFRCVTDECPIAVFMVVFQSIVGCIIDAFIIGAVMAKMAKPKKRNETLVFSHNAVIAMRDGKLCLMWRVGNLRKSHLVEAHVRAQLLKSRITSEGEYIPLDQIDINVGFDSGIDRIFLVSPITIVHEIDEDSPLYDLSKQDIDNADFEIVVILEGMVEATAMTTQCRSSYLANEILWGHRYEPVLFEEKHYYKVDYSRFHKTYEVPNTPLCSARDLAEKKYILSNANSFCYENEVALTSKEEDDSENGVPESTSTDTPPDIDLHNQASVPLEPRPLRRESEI

[5] = biological target: Inward rectifier potassium channel 4 (Homo sapiens, UniProt P48050); assay: Inhibition of Kir 2.3 (unknown origin)
[6] = biological target: ATP-sensitive inward rectifier potassium channel 10 (Homo sapiens, UniProt P78508); assay: Inhibition of Kir 4.1 (unknown origin)
[7] = biological target: Inward rectifier potassium channel 13 (Homo sapiens, UniProt O60928); assay: Inhibition of Kir 7.1 (unknown origin)
Sequence of Inward rectifier potassium channel 13 (O60928 whole entry): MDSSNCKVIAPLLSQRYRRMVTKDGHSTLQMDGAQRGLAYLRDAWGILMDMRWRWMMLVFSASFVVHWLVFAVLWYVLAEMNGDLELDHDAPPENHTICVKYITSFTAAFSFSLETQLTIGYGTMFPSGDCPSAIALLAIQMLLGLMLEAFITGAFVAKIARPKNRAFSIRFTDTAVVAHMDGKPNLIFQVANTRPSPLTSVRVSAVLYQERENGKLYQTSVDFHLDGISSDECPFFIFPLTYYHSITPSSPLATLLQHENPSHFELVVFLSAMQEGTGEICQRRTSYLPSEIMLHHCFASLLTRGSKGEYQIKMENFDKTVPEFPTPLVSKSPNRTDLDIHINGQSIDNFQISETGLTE

[8] = Permeability of compound from apical to basolateral side in human Caco-2 cells; type: ADME, cell-based; conditions: read-out: permeability
[9] = Permeability of compound from basolateral to apical side in human Caco-2 cells; type: ADME, cell-based
[10] = biological target: Cytochrome P450 1A2 (Homo sapiens, UniProt P05177); assay: Inhibition of CYP1A2 in human liver microsomes; type: ADME, Microsome
[11] = biological target: Cytochrome P450 2B6 (Homo sapiens, UniProt P20813); assay: Inhibition of CYP2B6 in human liver microsomes; type: ADME, Microsome
Sequence of Cytochrome P450 2B6 (P20813 whole entry): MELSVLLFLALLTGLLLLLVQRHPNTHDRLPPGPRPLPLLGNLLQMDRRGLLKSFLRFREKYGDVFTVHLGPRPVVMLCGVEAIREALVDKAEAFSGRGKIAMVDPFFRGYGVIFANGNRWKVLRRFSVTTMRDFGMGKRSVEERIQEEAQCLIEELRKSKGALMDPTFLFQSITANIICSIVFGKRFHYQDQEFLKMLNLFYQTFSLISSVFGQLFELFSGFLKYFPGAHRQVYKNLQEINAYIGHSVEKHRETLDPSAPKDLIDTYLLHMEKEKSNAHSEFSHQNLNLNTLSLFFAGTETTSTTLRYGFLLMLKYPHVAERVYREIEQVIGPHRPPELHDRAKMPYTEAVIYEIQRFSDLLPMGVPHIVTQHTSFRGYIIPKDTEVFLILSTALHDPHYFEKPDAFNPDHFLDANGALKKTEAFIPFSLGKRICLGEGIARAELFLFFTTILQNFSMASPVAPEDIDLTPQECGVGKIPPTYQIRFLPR

[12] = biological target: Cytochrome P450 2C8 (Homo sapiens, UniProt P10632); assay: Inhibition of CYP2C8 in human liver microsomes; type: ADME, Microsome
[13] = biological target: Cytochrome P450 2C9 (Homo sapiens, UniProt P11712); assay: Inhibition of CYP2C9 in human liver microsomes; type: ADME, Microsome
[14] = biological target: Cytochrome P450 2C19 (Homo sapiens, UniProt P33261); assay: Inhibition of CYP2C19 in human liver microsomes; type: ADME, Microsome
[15] = biological target: Cytochrome P450 2D6 (Homo sapiens, UniProt P10635); assay: Inhibition of CYP2D6 in human liver microsomes; type: ADME, Microsome
[16] = biological target: T1, Cytochrome P450 3A4 (Homo sapiens, UniProt P08684); assay: Inhibition of CYP3A4 in human liver microsomes using midazolam as substrate; type: ADME, Microsome
T1 sequence (P08684 whole entry): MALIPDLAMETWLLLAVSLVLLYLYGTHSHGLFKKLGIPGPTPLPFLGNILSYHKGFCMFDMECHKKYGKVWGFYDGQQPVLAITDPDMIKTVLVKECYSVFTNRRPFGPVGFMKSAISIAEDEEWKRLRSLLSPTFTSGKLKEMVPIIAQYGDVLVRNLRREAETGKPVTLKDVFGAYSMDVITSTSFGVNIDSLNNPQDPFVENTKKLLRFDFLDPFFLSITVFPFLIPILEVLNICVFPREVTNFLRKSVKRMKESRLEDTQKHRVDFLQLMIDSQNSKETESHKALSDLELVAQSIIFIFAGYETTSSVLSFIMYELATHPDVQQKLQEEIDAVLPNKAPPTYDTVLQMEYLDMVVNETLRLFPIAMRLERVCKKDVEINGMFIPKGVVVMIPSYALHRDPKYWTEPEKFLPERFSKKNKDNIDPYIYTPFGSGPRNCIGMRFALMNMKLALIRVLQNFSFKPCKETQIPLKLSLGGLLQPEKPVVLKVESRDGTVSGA

[17] = biological target: T1, Cytochrome P450 3A4; assay: Inhibition of CYP3A4 in human liver microsomes using testosterone as substrate; type: ADME, Microsome
[18] = biological target: CYP1A2 (Homo sapiens, UniProt P05177); assay: Induction of CYP1A2 (unknown origin); type: ADME
[19] = biological target: CYP2B6 (Homo sapiens, UniProt P20813); assay: Induction of CYP2B6 (unknown origin); type: ADME
Sequence of CYP2B6 (P20813 whole entry): as the sequence (P20813 whole entry) above

[20] = biological target: CYP3A4 (Homo sapiens, UniProt P08684); assay: Induction of CYP3A4 (unknown origin); type: ADME
Sequence of CYP3A4 (P08684 whole entry): as the sequence (P08684 whole entry) above

[21] = Protein binding in human plasma assessed as unbound fraction; type: ADME, cell-free
[22] = Protein binding in rat plasma assessed as unbound fraction; type: ADME, cell-free
[23] = Protein binding in mouse plasma assessed as unbound fraction; type: ADME, cell-free
[24] = Protein binding in dog plasma assessed as unbound fraction; type: ADME, cell-free, Canis lupus familiaris
[25] = Protein binding in Cynomolgus monkey plasma assessed as unbound fraction; type: ADME, cell-free, Macaca fascicularis
[26] = biological target: Nuclear receptor subfamily 1 group I member 2 (Homo sapiens, UniProt O75469); assay: Activation of PXR (unknown origin)
[27] = Cytotoxicity against human HepG2 cells; type: toxicity, cell-based
[28] = biological target: Multidrug and toxin extrusion protein 1 (Homo sapiens, UniProt Q96FL8); assay: Inhibition of MATE1 (unknown origin)
[29] = biological target: Bile salt export pump (Homo sapiens, UniProt O95342); assay: Inhibition of BSEP (unknown origin)
[30] = biological target: Solute carrier organic anion transporter family member 1B1 (Homo sapiens, UniProt Q9Y6L6); assay: Inhibition of OATP1B1 (unknown origin)
[31] = biological target: Solute carrier organic anion transporter family member 1B3 (Homo sapiens, UniProt Q9NPD5); assay: Inhibition of OATP1B3 (unknown origin)
[32] = biological target: Hepatic sodium/bile acid cotransporter (Homo sapiens, UniProt Q14973); assay: Inhibition of NTCP (unknown origin)
Sequence of Hepatic sodium/bile acid cotransporter (Q14973 whole entry): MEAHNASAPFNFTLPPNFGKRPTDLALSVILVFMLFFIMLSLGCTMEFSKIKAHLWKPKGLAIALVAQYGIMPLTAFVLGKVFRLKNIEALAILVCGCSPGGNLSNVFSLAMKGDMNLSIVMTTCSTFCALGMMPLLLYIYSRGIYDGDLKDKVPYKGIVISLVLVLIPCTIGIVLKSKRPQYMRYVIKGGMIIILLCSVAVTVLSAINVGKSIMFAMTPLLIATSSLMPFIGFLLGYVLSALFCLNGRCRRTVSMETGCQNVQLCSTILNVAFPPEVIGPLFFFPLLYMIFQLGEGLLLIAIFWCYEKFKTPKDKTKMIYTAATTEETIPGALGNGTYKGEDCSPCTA

[33] = biological target: ATP-binding cassette sub-family C member 2 (Homo sapiens, UniProt Q92887); assay: Inhibition of MRP2 (unknown origin)
Sequence of ATP-binding cassette sub-family C member 2 (Q92887 whole entry): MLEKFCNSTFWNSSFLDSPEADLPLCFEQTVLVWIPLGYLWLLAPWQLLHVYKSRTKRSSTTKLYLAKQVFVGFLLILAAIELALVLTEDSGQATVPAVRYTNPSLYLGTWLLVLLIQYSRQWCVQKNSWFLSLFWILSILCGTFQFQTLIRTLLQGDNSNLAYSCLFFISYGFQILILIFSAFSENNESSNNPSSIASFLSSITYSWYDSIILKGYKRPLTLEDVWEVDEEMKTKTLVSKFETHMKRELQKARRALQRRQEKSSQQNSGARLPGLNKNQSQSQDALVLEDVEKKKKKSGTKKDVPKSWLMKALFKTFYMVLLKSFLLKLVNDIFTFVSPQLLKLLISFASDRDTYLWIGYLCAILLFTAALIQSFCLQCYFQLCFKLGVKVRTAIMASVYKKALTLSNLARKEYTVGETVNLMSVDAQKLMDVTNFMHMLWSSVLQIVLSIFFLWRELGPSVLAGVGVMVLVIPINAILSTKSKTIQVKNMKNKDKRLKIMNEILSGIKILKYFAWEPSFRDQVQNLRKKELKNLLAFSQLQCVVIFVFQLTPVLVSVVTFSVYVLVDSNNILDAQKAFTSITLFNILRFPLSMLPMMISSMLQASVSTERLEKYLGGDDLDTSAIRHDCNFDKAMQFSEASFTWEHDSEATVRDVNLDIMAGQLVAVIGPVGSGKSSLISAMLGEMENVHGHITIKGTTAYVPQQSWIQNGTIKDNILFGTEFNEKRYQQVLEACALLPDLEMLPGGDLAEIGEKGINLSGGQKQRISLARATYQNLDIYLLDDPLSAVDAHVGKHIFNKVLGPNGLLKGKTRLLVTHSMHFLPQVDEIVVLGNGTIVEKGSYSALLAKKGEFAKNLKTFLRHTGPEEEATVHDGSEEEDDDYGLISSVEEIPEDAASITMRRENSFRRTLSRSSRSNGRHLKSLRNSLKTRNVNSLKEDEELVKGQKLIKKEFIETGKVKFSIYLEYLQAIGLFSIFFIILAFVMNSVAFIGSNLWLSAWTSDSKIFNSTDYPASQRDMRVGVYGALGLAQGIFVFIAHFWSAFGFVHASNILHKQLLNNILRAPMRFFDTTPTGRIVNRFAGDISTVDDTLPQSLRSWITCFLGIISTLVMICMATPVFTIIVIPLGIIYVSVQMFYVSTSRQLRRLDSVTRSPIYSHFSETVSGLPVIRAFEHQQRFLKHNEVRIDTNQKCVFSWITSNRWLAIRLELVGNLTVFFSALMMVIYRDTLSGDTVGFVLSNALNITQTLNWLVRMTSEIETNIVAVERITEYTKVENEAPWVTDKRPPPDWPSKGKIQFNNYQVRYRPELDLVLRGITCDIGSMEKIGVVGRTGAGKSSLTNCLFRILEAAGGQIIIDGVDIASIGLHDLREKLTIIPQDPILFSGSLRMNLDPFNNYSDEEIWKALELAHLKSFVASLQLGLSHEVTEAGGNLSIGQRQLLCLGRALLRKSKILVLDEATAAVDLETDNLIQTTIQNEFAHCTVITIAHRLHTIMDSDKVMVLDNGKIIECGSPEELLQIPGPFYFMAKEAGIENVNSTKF

[34] = biological target: Solute carrier family 22 member 6 (Homo sapiens, UniProt Q4U2R8); assay: Inhibition of OAT1 (unknown origin)
[35] = biological target: Organic anion transporter 3 (Homo sapiens, UniProt Q8TCC7); assay: Inhibition of OAT3 (unknown origin)
Sequence of Organic anion transporter 3 (Q8TCC7 whole entry): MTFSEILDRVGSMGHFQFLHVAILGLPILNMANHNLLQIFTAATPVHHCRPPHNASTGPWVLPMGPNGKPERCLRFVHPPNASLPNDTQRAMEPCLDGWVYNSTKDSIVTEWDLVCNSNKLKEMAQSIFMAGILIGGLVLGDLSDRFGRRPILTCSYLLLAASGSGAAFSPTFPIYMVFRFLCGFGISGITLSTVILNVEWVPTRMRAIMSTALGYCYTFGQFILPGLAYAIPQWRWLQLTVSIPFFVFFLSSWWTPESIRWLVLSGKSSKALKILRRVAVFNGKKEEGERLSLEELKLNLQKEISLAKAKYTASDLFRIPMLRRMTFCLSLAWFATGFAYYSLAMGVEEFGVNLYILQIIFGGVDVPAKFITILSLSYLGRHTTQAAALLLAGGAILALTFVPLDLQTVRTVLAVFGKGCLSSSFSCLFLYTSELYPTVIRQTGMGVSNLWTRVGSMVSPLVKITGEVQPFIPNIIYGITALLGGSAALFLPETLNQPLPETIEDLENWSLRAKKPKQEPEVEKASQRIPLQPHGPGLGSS

[36] = biological target: Broad substrate specificity ATP-binding cassette transporter ABCG2 (Homo sapiens, UniProt Q9UNQ0); assay: Inhibition of BCRP (unknown origin)
Sequence of Broad substrate specificity ATP-binding cassette transporter ABCG2 (Q9UNQ0 whole entry): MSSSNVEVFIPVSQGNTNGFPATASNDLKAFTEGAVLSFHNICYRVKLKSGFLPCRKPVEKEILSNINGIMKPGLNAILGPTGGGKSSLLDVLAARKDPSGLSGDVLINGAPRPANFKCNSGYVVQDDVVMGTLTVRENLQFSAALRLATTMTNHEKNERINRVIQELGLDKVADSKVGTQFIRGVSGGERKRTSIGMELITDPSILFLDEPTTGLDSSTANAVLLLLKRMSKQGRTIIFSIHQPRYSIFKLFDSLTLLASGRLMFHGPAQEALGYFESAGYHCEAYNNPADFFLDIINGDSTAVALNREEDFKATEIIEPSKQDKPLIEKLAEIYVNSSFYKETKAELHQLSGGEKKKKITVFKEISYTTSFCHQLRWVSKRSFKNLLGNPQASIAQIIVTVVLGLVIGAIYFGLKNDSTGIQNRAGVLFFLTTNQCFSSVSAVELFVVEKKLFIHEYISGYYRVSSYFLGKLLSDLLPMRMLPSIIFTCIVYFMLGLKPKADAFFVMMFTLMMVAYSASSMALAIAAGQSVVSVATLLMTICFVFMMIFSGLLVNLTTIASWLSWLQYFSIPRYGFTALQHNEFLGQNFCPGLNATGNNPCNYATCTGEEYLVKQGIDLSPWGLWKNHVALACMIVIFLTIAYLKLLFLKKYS

[37] = Solubility of compound at pH 1.1; type: physicochemical; conditions: buffer
[38] = Solubility of compound at pH 7.4; type: physicochemical; conditions: buffer
[39] = Volume of distribution at steady state in mouse at 2 mg/kg, iv; type: ADME, organism-based; conditions: in vivo, read-out: Vdss
[40] = Half-life in mouse at 2 mg/kg, iv; type: ADME, organism-based; conditions: in vivo
[41] = MRT in mouse at 2 mg/kg, iv; type: ADME, organism-based; conditions: in vivo
[42] = Cmax in mouse at 2 mg/kg, po; type: ADME, organism-based; conditions: in vivo
[43] = Tmax in mouse at 2 mg/kg, po; type: ADME, organism-based; conditions: in vivo
[44] = AUC (0 to t) in mouse at 2 mg/kg, po; type: ADME, organism-based; conditions: in vivo
[45] = Oral bioavailability in mouse at 5 mg/kg; type: ADME, organism-based; conditions: in vivo
[46] = Volume of distribution at steady state in male Sprague-Dawley rat at 2 mg/kg, iv measured after 24 hrs by LC-MS/MS analysis; type: ADME, organism-based; conditions: in vivo, read-out: Vdss
[47] = Half-life in male Sprague-Dawley rat at 2 mg/kg, iv measured after 24 hrs by LC-MS/MS analysis; type: ADME, organism-based; conditions: in vivo
[48] = MRT in male Sprague-Dawley rat at 2 mg/kg, iv measured after 24 hrs by LC-MS/MS analysis; type: ADME, organism-based; conditions: in vivo
[49] = Cmax in male Sprague-Dawley rat at 5 mg/kg, po measured after 24 hrs by LC-MS/MS analysis; type: ADME, organism-based; conditions: in vivo
[50] = Tmax in male Sprague-Dawley rat at 5 mg/kg, po measured after 24 hrs by LC-MS/MS analysis; type: ADME, organism-based; conditions: in vivo
[51] = AUC (0 to t) in male Sprague-Dawley rat at 5 mg/kg, po measured after 24 hrs by LC-MS/MS analysis; type: ADME, organism-based; conditions: in vivo
[52] = Oral bioavailability in male Sprague-Dawley rat at 5 mg/kg measured after 24 hrs by LC-MS/MS analysis; type: ADME, organism-based; conditions: in vivo
[53] = Volume of distribution at steady state in dog at 2 mg/kg, iv; type: ADME, organism-based, Canis lupus familiaris; conditions: in vivo, read-out: Vdss
[54] = Half-life in dog at 2 mg/kg, iv; type: ADME, organism-based, Canis lupus familiaris; conditions: in vivo
[55] = MRT in dog at 2 mg/kg, iv; type: ADME, organism-based, Canis lupus familiaris; conditions: in vivo
[56] = Cmax in dog at 5 mg/kg, po; type: ADME, organism-based, Canis lupus familiaris; conditions: in vivo
[57] = Tmax in dog at 5 mg/kg, po; type: ADME, organism-based, Canis lupus familiaris; conditions: in vivo
[58] = AUC (0 to t) in dog at 5 mg/kg, po; type: ADME, organism-based, Canis lupus familiaris; conditions: in vivo
[59] = Oral bioavailability in dog at 5 mg/kg; type: ADME, organism-based, Canis lupus familiaris; conditions: in vivo
[60] = Volume of distribution at steady state in Cynomolgus monkey at 2 mg/kg, iv; type: ADME, organism-based, Macaca fascicularis; conditions: in vivo, read-out: Vdss
[61] = Half-life in Cynomolgus monkey at 2 mg/kg, iv; type: ADME, organism-based, Macaca fascicularis; conditions: in vivo
[62] = MRT in Cynomolgus monkey at 2 mg/kg, iv; type: ADME, organism-based, Macaca fascicularis; conditions: in vivo
[63] = Cmax in Cynomolgus monkey at 5 mg/kg, po; type: ADME, organism-based, Macaca fascicularis; conditions: in vivo
[64] = Tmax in Cynomolgus monkey at 5 mg/kg, po; type: ADME, organism-based, Macaca fascicularis; conditions: in vivo
[65] = AUC (0 to t) in Cynomolgus monkey at 5 mg/kg, po; type: ADME, organism-based, Macaca fascicularis; conditions: in vivo
[66] = Oral bioavailability in Cynomolgus monkey at 5 mg/kg; type: ADME, organism-based, Macaca fascicularis; conditions: in vivo

remaining at 10 min, 10 µM [1]: 90%
remaining at 10 min, 10 µM [2]: 92%
Activity [3]: Not Active
IC50 [4]: > 10 µM
IC50 [5]: > 10 µM
IC50 [6]: > 10 µM
IC50 [7]: > 10 µM
Papp A→B [8]: 110 ×10⁻⁶ cm/s
permeability [9]: 570 10^-6 cm/s
IC50 [10]: > 40 µM
IC50 [11]: > 40 µM
IC50 [12]: > 40 µM
IC50 [13]: > 40 µM
IC50 [14]: > 40 µM
IC50 [15]: > 40 µM
IC50 [16]: > 40 µM
IC50 [17]: > 40 µM
IC50 [18]: > 40 µM
IC50 [19]: > 40 µM
IC50 [20]: > 40 µM
PPB [21]: 52%
PPB [22]: 68%
PPB [23]: 83%
PPB [24]: 76%
PPB [25]: 74%
EC50 [26]: > 50 µM
IC50 [30]: > 18 µM
IC50 [31]: > 18 µM
IC50 [32]: > 18 µM
IC50 [33]: > 18 µM
IC50 [34]: > 18 µM
IC50 [35]: > 18 µM
IC50 [36]: > 18 µM
solubility [37]: 14000 µg/mL (≈ 31.6 mM)
solubility [38]: 30 µg/mL (≈ 0.0676 mM)
Vd [39]: 2.6 L/kg
half-life [40]: 2.8 h
MRT [41]: 4 h
Cmax [42]: 2800 nM
Tmax [43]: 0.25 h
AUC(0-t) [44]: 14 µM·h
bioavailability [45]: 83%
Vd [46]: 2.8 L/kg
half-life [47]: 4.8 h
MRT [48]: 5.8 h
Cmax [49]: 3800 nM
Tmax [50]: 0.8 h
AUC(0-t) at 24 h [51]: 18 µM·h
bioavailability [52]: 76%
Vd [53]: 1.7 L/kg
half-life [54]: 3.3 h
MRT [55]: 1.7 h
Cmax [56]: 1900 nM
Tmax [57]: 0.8 h
AUC(0-t) [58]: 5.7 µM·h
bioavailability [59]: 48%
Vd [60]: 5.1 L/kg
half-life [61]: 4.2 h
MRT [62]: 3.6 h
Cmax [63]: 1000 nM
Tmax [64]: 2 h
AUC(0-t) [65]: 5.5 µM·h
bioavailability [66]: 69%
Compound: Cc1cc(-n2ncc(CN3C[C@@H](c4ccc5c(c4C)COC5=O)N[C@@H](C)C3)n2)ncc1C#N
IC50 [27]: > 100 µM
IC50 [28]: 2.7 µM
IC50 [29]: 7 µM

— ChEMBL document CHEMBL5512682, “Discovery of BMS-986308: A Renal Outer Medullary Potassium Channel Inhibitor for the Treatment of Heart Failure” (J Med Chem, 2024)
